Columns and labels:
[1] = refractive index (Na D-line) (dimensionless); conditions: 101.33 kPa, Liquid, Standard Abbe refractometry
[2] = for mass density / kinematic viscosity: 101.33 kPa, Liquid; for mass density: Vibrating tube method; for surface tension liquid-gas / kinematic viscosity: Surface laser light scattering (SLLS)

CCCCCCCC(=O)OCC [ethyl octanoate]
Conditions | kinematic viscosity [m2/s] | mass density [kg/m3] | refractive index | surface tension liquid-gas [mN/m]
[1], 278.15 K | – | – | 1.42461 | –
[1], 283.15 K | – | – | 1.42242 | –
[1], 288.15 K | – | – | 1.42025 | –
[1], 293.15 K | – | – | 1.41807 | –
[1], 298.15 K | – | – | 1.41587 | –
[1], 303.15 K | – | – | 1.41367 | –
[1], 308.15 K | – | – | 1.41148 | –
[1], 313.15 K | – | – | 1.40926 | –
[1], 318.15 K | – | – | 1.40703 | –
[1], 323.15 K | – | – | 1.40481 | –
[1], 328.15 K | – | – | 1.40261 | –
[1], 333.15 K | – | – | 1.40042 | –
[1], 338.15 K | – | – | 1.39823 | –
[1], 343.15 K | – | – | 1.39603 | –
[1], 348.15 K | – | – | 1.39386 | –
[1], 353.15 K | – | – | 1.3917 | –
[1], 358.15 K | – | – | 1.38955 | –
[2], 293.15 K | – | 866.99 | – | –
[2], 298.15 K | 1.52e-06 | – | – | 25.38
[2], 303.15 K | – | 858.27 | – | –
[2], 313.15 K | – | 849.55 | – | –
[2], 323.14 K | 1.15e-06 | – | – | 23.34
[2], 323.15 K | – | 839.92 | – | –
[2], 333.15 K | – | 832 | – | –
[2], 343.15 K | – | 823.46 | – | –
[2], 348.17 K | 8.92e-07 | – | – | 21.5
[2], 353.15 K | – | 814.74 | – | –
[2], 363.15 K | – | 805.97 | – | –
[2], 373.15 K | – | 797.16 | – | –
[2], 373.19 K | 6.88e-07 | – | – | 19.5
[2], 383.15 K | – | 788.08 | – | –
[2], 393.15 K | – | 779.34 | – | –
[2], 398.2 K | 5.45e-07 | – | – | 17.44
[2], 403.15 K | – | 770.31 | – | –
[2], 413.15 K | – | 761.18 | – | –
[2], 423.15 K | – | 751.94 | – | –
[2], 423.18 K | 4.53e-07 | – | – | 15.36
[2], 433.15 K | – | 742.64 | – | –
[2], 443.15 K | – | 733.17 | – | –
[2], 448.17 K | 3.86e-07 | – | – | 13.16
[2], 453.15 K | – | 723.58 | – | –

CCCCCCCCCCCC(=O)OCC [ethyl dodecanoate]
Conditions | kinematic viscosity [m2/s] | mass density [kg/m3] | refractive index | surface tension liquid-gas [mN/m]
[1], 278.15 K | – | – | 1.43791 | –
[1], 283.15 K | – | – | 1.43583 | –
[1], 288.15 K | – | – | 1.43375 | –
[1], 293.15 K | – | – | 1.43169 | –
[1], 298.15 K | – | – | 1.42961 | –
[1], 303.15 K | – | – | 1.42755 | –
[1], 308.15 K | – | – | 1.42547 | –
[1], 313.15 K | – | – | 1.42335 | –
[1], 318.15 K | – | – | 1.42125 | –
[1], 323.15 K | – | – | 1.41915 | –
[1], 328.15 K | – | – | 1.41707 | –
[1], 333.15 K | – | – | 1.41501 | –
[1], 338.15 K | – | – | 1.41295 | –
[1], 343.15 K | – | – | 1.4109 | –
[1], 348.15 K | – | – | 1.40886 | –
[1], 353.15 K | – | – | 1.40684 | –
[1], 358.15 K | – | – | 1.40479 | –
[2], 293.15 K | – | 862 | – | –
[2], 298.03 K | 3.11e-06 | – | – | 26.84
[2], 303.15 K | – | 853.15 | – | –
[2], 313.15 K | – | 845.31 | – | –
[2], 323.15 K | 1.98e-06 | 838.31 | – | 24.54
[2], 333.15 K | – | 830.53 | – | –
[2], 343.15 K | – | 822.74 | – | –
[2], 348.25 K | 1.44e-06 | – | – | 22.85
[2], 353.15 K | – | 814.95 | – | –
[2], 363.15 K | – | 807.16 | – | –
[2], 373.15 K | – | 799.37 | – | –
[2], 373.4 K | 1.09e-06 | – | – | 21.17
[2], 383.15 K | – | 791.55 | – | –
[2], 393.15 K | – | 783.72 | – | –
[2], 398.14 K | 8.72e-07 | – | – | 19.32
[2], 403.15 K | – | 775.85 | – | –
[2], 413.15 K | – | 767.94 | – | –
[2], 423.13 K | 7.19e-07 | – | – | 17.83
[2], 423.15 K | – | 759.99 | – | –
[2], 433.15 K | – | 751.6 | – | –
[2], 443.15 K | – | 744.05 | – | –
[2], 448.22 K | 5.91e-07 | – | – | 15.95
[2], 453.15 K | – | 735.97 | – | –

Source: the NIST ThermoML archive (doi:10.1016/j.jct.2019.02.025)
